Laboratory results published in the OPERA property sets (Mansouri et al. 2018).

**Q.** Which logP does the source give for `O=C(NC(CO)C(O)c1ccc([N+](=O)[O-])cc1)C(F)(F)F` (stereo not given) here?
**A.** 1.07

**Q.** Which logP does the source give for `COc1cccc(COC(=O)N(C)C)c1` here?
**A.** 2.09

**Q.** With `CSc1ccc2c(c1)N(CCC1CCCCN1C)c1ccccc1S2` (stereo not given) as the compound, how does the logP read?
**A.** 5.9

**Q.** For `CN1C(=O)CN=C(c2ccccc2F)c2cc(F)ccc21`, which logP is on record?
**A.** 2.41

**Q.** Which logP does the source give for `Cc1cc(NN)ncn1` here?
**A.** 0.62

**Q.** Which logP does the source give for `O=C(O)c1ccc(CO)cc1` here?
**A.** 0.93

**Q.** With `C=CCc1ccccc1` as the compound, how does the logP read?
**A.** 3.23

**Q.** Which logP does the source give for `Nc1ccccc1Br` here?
**A.** 2.11

**Q.** For `CN(C)CCOC(=O)c1ccc([N+](=O)[O-])cc1`, which logP is on record?
**A.** 1.7

**Q.** Which logP does the source give for `CC(=O)c1ccc2cccccc1-2` here?
**A.** 2.87

**Q.** Which logP does the source give for `O=CO` here?
**A.** -0.54

**Q.** For `Cc1[nH]c(=O)n(C(C)(C)C)c(=O)c1Cl`, which logP is on record?
**A.** 1.89

**Q.** With `CC(=O)Nc1ccccc1` as the compound, how does the logP read?
**A.** 1.16

**Q.** For `O=C(NC(CO)C(O)c1ccc(Br)cc1)C(Cl)Cl` (stereo not given), which logP is on record?
**A.** 1.87

**Q.** Which logP does the source give for `Fc1cccc(CCl)c1` here?
**A.** 2.77

**Q.** For `OCc1ccc(O)cc1`, which logP is on record?
**A.** 0.25

**Q.** Which logP does the source give for `CCN(CC)CC(F)(F)F` here?
**A.** 1.88

**Q.** With `CCN` as the compound, how does the logP read?
**A.** -0.13

**Q.** Which logP does the source give for `NS(=O)(=O)c1ccc(I)cc1` here?
**A.** 1.59

**Q.** Which logP does the source give for `NCCC(N)C(=O)O` (stereo not given) here?
**A.** -4.64

**Q.** With `CCC#N` as the compound, how does the logP read?
**A.** 0.16

**Q.** With `COc1ccc(C(=O)NN)cc1` as the compound, how does the logP read?
**A.** 0.25

**Q.** For `CNC(=O)Oc1cc(C)ccc1C`, which logP is on record?
**A.** 2.03

**Q.** Which logP does the source give for `CCOS(=O)(=O)c1ccc(C)cc1` here?
**A.** 1.81

**Q.** Which logP does the source give for `NC1CC1` here?
**A.** 0.07

**Q.** With `O=C(O)c1ccc(I)cc1` as the compound, how does the logP read?
**A.** 3.02

**Q.** With `Clc1cccs1` as the compound, how does the logP read?
**A.** 2.54

**Q.** Which logP does the source give for `C=CCC1(CC(=C)Br)C(=O)NC(=O)NC1=O` here?
**A.** 1.37

**Q.** Which logP does the source give for `C=CCCCCC` here?
**A.** 3.99

**Q.** With `CN(C)c1nc(N)nc(N(C)C)n1` as the compound, how does the logP read?
**A.** 1.2

**Q.** With `CCOCCCl` as the compound, how does the logP read?
**A.** 0.98

**Q.** With `O=C(OCC1CCC(n2cnc3c(=O)[nH]cnc32)O1)c1ccccc1` (stereo not given) as the compound, how does the logP read?
**A.** 0.66

**Q.** For `COC(=O)CNC(=O)c1ccc([N+](=O)[O-])cc1`, which logP is on record?
**A.** 0.98

**Q.** For `O=Cc1ccc2cccccc1-2`, which logP is on record?
**A.** 2.64

**Q.** Which logP does the source give for `O=S(=O)(c1ccccc1)c1ccc2ncccc2c1` here?
**A.** 2.57

**Q.** Which logP does the source give for `CCCCCCCOc1ccccc1NC(=O)OCCN1CCCCC1` here?
**A.** 5.62

**Q.** With `O=Cc1ccco1` as the compound, how does the logP read?
**A.** 0.41

**Q.** Which logP does the source give for `N#CCCl` here?
**A.** 0.45

**Q.** For `O=C(O)COc1cccc(F)c1`, which logP is on record?
**A.** 1.48

**Q.** With `COC(=O)CNC(=O)c1ccccc1` as the compound, how does the logP read?
**A.** 0.82

**Q.** Which logP does the source give for `O=[N+]([O-])c1ccc(C=NO)cc1` here?
**A.** 1.95

**Q.** For `N#CNC(=N)N`, which logP is on record?
**A.** -1.15

**Q.** For `NS(=O)(=O)c1cc2c(cc1Br)NCNS2(=O)=O`, which logP is on record?
**A.** 0.08

**Q.** With `Clc1cccnc1Cl` as the compound, how does the logP read?
**A.** 2.11

**Q.** Which logP does the source give for `NC(=O)c1ccccc1N` here?
**A.** 0.35

**Q.** Which logP does the source give for `Cn1nc2ccccc2n1` here?
**A.** 1.64

**Q.** With `CN(c1ccccn1)S(=O)(=O)c1ccc(N)cc1` as the compound, how does the logP read?
**A.** 1.3

**Q.** For `CCCOP(=O)(OCCC)OCCC`, which logP is on record?
**A.** 1.87

**Q.** For `S=C=Nc1ccc2ccccc2c1`, which logP is on record?
**A.** 4.34

**Q.** For `CCCCOC(=O)c1ccccc1`, which logP is on record?
**A.** 3.84

**Q.** With `Cc1ccc(Cc2c[nH]c(NCCSCc3ccc(CN(C)C)o3)nc2=O)cn1` as the compound, how does the logP read?
**A.** 2.06

**Q.** For `CC(=O)c1ccc(Br)cc1`, which logP is on record?
**A.** 2.43

**Q.** Which logP does the source give for `Cc1ccc(CC(=O)O)cc1` here?
**A.** 1.86

**Q.** For `O=C(NP(=O)(N1CC1)N1CC1)c1ccccc1Br`, which logP is on record?
**A.** 1.08

**Q.** Which logP does the source give for `Nc1ccc(N)cc1` here?
**A.** -0.3

**Q.** Which logP does the source give for `NC(=O)CCNC(=O)C(F)(F)Cn1ccnc1[N+](=O)[O-]` here?
**A.** -0.95

**Q.** For `COc1ccccc1N(C)C`, which logP is on record?
**A.** 1.63

**Q.** With `O=C(O)c1ccc(O)cc1` as the compound, how does the logP read?
**A.** 1.58

**Q.** With `c1ccc(CN2CCOCC2)cc1` as the compound, how does the logP read?
**A.** 1.58

**Q.** For `CC(O)CCC(=O)c1ccoc1` (stereo not given), which logP is on record?
**A.** 0.84

**Q.** With `CC(=O)C1CC1` as the compound, how does the logP read?
**A.** 0.49

**Q.** Which logP does the source give for `COc1cccc(C(=O)O)c1O` here?
**A.** 1.94

**Q.** Which logP does the source give for `COc1ccc2cc(C(C)C(=O)OCC(=O)N(CCO)CCO)ccc2c1` (stereo not given) here?
**A.** 1.7

**Q.** For `CC(C)N1CCOC(c2ccccc2)C1` (stereo not given), which logP is on record?
**A.** 2.3

**Q.** For `CCCNc1ccccc1`, which logP is on record?
**A.** 2.45

**Q.** Which logP does the source give for `Clc1ccc(-c2cc(Cl)ccc2Cl)c(Cl)c1` here?
**A.** 6.22

**Q.** Which logP does the source give for `N#Cc1cccc(CC(=O)O)c1` here?
**A.** 1.18

**Q.** Which logP does the source give for `ClCC#CCCl` here?
**A.** 2.01

**Q.** Which logP does the source give for `CC(=O)Oc1ccccc1Cl` here?
**A.** 2.18

**Q.** With `COc1ccccc1CO` as the compound, how does the logP read?
**A.** 1.13

**Q.** With `Oc1cccc2c(Cl)ccnc12` as the compound, how does the logP read?
**A.** 2.67

**Q.** Which logP does the source give for `CCC(=O)OC1(C(=O)CCl)C(C)CC2C3CCC4=CC(=O)C=CC4(C)C3C(O)CC21C` (stereo not given) here?
**A.** 3.34

**Q.** For `OCC(Cl)Cl`, which logP is on record?
**A.** 0.37

**Q.** With `CCOC(=O)CCc1ccccc1` as the compound, how does the logP read?
**A.** 2.73

**Q.** For `CC(=O)Nc1ccc(F)cc1`, which logP is on record?
**A.** 1.47

**Q.** For `CCOP(=S)(OCC)N1C(=O)c2ccccc2C1=O`, which logP is on record?
**A.** 3.48

**Q.** Which logP does the source give for `CC(=O)OC[C@H]1O[C@@H](n2ncc(=O)[nH]c2=O)[C@H](OC(C)=O)[C@@H]1OC(C)=O` here?
**A.** -0.2

**Q.** Which logP does the source give for `OCCN1CCN(C2CC(c3ccc(F)cc3)c3ccc(C(F)(F)F)cc32)CC1` (stereo not given) here?
**A.** 4.39

**Q.** Which logP does the source give for `CSc1ccc(O)cc1` here?
**A.** 1.78

**Q.** Which logP does the source give for `O=c1[nH]c2ccccc2o1` here?
**A.** 1.16
